Reference: ChEMBL document CHEMBL1208743, “Discovery of novel sphingosine kinase-1 inhibitors. Part 2” (Bioorg Med Chem Lett, 2010)

What was measured:
[1] = Intrinsic clearance in rat liver microsome measured per mg of protein; assay type: ADME; settings: liver microsomes
[2] = Intrinsic clearance in human liver microsome measured per mg of protein; assay type: ADME; settings: liver microsomes
[3] = Distribution coefficient, log D of the compound; assay type: physicochemical; settings: octanol/water
[4] = Clearance in rat at 1 mg/kg, iv; assay type: ADME, organism-based; set-up: dose 1 mg/kg, route intravenous; settings: in vivo
[5] = Cmax in rat at 3 mg/kg, po; assay type: ADME, organism-based; set-up: dose 3 mg/kg, route oral; settings: in vivo
[6] = Oral bioavailability in rat at 3 mg/kg; assay type: ADME, organism-based; settings: in vivo
[7] = AUC in rat at 1 mg/kg, iv; assay type: ADME, organism-based; set-up: dose 1 mg/kg, route intravenous; settings: plasma
[8] = Volume of distribution at steady state in rat at 1 mg/kg, iv; assay type: ADME, organism-based; set-up: dose 1 mg/kg, route intravenous; settings: in vivo, read-out: Vdss
[9] = Half life in rat at 3 mg/kg, po; assay type: ADME, organism-based; set-up: dose 3 mg/kg, route oral; settings: in vivo
[10] = Tmax in rat at 3 mg/kg, po; assay type: ADME, organism-based; set-up: dose 3 mg/kg, route oral; settings: in vivo
[11] = Half life in rat at 1 mg/kg, iv; assay type: ADME, organism-based; set-up: dose 1 mg/kg, route intravenous; settings: in vivo
[12] = AUC in rat at 3 mg/kg, po; assay type: ADME, organism-based; set-up: dose 3 mg/kg, route oral; settings: plasma

microsomal CLint [1] [µL/min/mg] | microsomal CLint [2] [µL/min/mg] | logD [3] | clearance [4] [mL/min/kg] | Cmax [5] [ng/mL] | bioavailability [6] [%] | AUC [7] [ng·h/mL] | Vd [8] [L/kg] | half-life [9] [h] | Tmax [10] [h] | half-life [11] [h] | AUC [12] [ng·h/mL] | SMILES
60 | 45 | 3.7 | – | – | – | – | – | – | – | – | – | CCCCCCCc1nc(-c2ccc(CNC(=O)[C@H]3NCC[C@@H]3O)cc2)no1
49.5 | 12 | 2.9 | 37.1 | 82.5 | 17.6 | 439 | 5.55 | 7.55 | 0.33 | 4.3 | 232 | C[C@H](NC(=O)[C@H]1NCC[C@@H]1O)c1ccc(-c2noc(CCC3CCCC3)n2)cc1
50.2 | < 4.5 | 3.6 | – | – | – | – | – | – | – | – | – | C[C@H](NC(=O)[C@H]1NCC[C@@H]1O)c1ccc(-c2noc(CCC3CCCCC3)n2)cc1
38.8 | 10 | 4.3 | 81.8 | 37.5 | 15.3 | 204 | 7.86 | 1.64 | 0.75 | 1.64 | 94.8 | CC[C@H](NC(=O)[C@H]1NCC[C@@H]1O)c1ccc(-c2noc(CCC3CCCCC3)n2)cc1
